Data reported in PubChem BioAssay AID2060495 (Molecular Pharmacology Branch, DTP, NCI, 2025).
Several values for one entry are separate records, joined by “and”; a condition that tells them apart may be missing. Equal entries are not always repeated.

Tested on: 521955-158-R2-J5-PDC complex spheroid viability
Assay: Anticancer human tumor 521955-158-R2-J5-PDC patient-derived pancreatic carcinoma cell line growth inhibition [GQUAD]
Settings: for viability, T/C: stronger effect = lower value
From the text: DNA G-quadruplex Stabilizer Agents in Combinations in Complex Spheroids
A high-throughput screen of multi-cell type tumor spheroids was designed to identify active combinations of DNA G-quadruplex stabilizer agents and targeted small molecules. Complex spheroids include a stromal component modeled by human endothelial cells (HUVEC) and fibroblasts modeled by human mesenchymal stem cells (MSCs). The concentration ranges selected for each drug and investigational agent were based upon clinically achievable concentrations if the clinical Cmax of the agent was known.
Compounds. The drugs and investigational agents: pidnarulex (CX-5461; NSC782164), APTO-253 (NSC789042), BRACO-19 (NSC847499), peposertib (NSC802822), ceralasertib (NSC780249), elimusertib (NSC800525), camonsertib (NSC841442), AZD-1390 (NSC803789), olaparib (NSC753686), talazoparib (NSC767125), ART-558 (NSC835418), sotorasib (NSC818433), MRTX-1133 (NSC836407), SN-38 (NSC673596), topotecan (NSC609699), etoposide (NSC141540), doxorubicin (NSC123127), gemcitabine (NSC613327), 5-fluorouracil (NSC19893), paclitaxel (NSC125973), vemurafenib (NSC761431), panobinostat (NSC761190), R-306465 (JNJ-16241199; NSC773264), adavosertib (NSC754352), TP-3654 (NSC805149), carboplatin (NSC241240), KSQ-4279 (NSC840948), and staurosporine (NSC755774) were obtained from the National Cancer Institute (NCI) Developmental Therapeutics Program Chemical Repository (34). The FDA-approved anticancer drug set is available from the NCI Developmental Therapeutics Program. […] The stock solutions were prepared in dimethyl sulfoxide (DMSO, Sigma-Aldrich, St. Louis, MO, cat. D2650) at 800-fold the tested concentration and stored at -70 degrees C prior to their use. All drugs and investigational agents were tested over a range starting from a high concentration at or near the clinical Cmax and decreasing in half-log increments. If the clinical Cmax for an agent had not been determined, the highest concentration tested was 10 microM.
2.3 Cell Culture. All cells were maintained in an incubator at 37 degrees C and 5% CO2 with 95% humidity. The PDC lines were cultured according to standard operating procedures established by the NCI PDMR. All PDCs were thawed and cultured in Matrigel-coated flasks prepared with a working solution of 1X Ham's F-12 nutrient mix, without supplementation (Invitrogen, cat. 11765054), 100 U/mL penicillin-streptomycin (Invitrogen, cat. 15140122), and 2.5% Matrigel (Corning Inc., cat. 354248) for the first three passages. The 857933-349-R-J2-PDC line was cultured in 6C/Colon 1B media, which includes advanced DMEM/F-12 (Thermo Fisher Scientific, cat. 12634028), 10 mM HEPES (Thermo Fisher Scientific, cat. 15630080), 1X GlutaMAX supplement (Thermo Fisher Scientific, cat. 35050061), 0.1 mg/mL primocin (InvivoGen, cat. ant-pm-2), 10% defined fetal bovine serum, heat inactivated (HyClone Laboratories Inc., cat. SH30070.03HI), 50% L-WRN conditioned media (ATCC, cat. CRL-3276), 1.25 mM N-Acetyl-L-cysteine (Sigma-Aldrich, cat. A9165), 10 mM nicotinamide (Sigma-Aldrich, cat. N0636), 1X B-27 supplement (Thermo Fisher Scientific, cat. 17504044), 1X N-2 supplement (Thermo Fisher Scientific, cat. 17502048), 10 microM Y-27632 dihydrochloride (Tocris Bioscience, cat. 1254), and 50 ng/mL human EGF recombinant protein (Thermo Fisher Scientific, cat. PHG0311). The 485176-168-R4-J1-PDC line was cultured in Panc media, which includes all 6C/Colon 1B media components plus 100 ng/mL human FGF-10 (Thermo Fisher Scientific, cat. 100-26), 500 nM SB-431542 (Selleckchem, cat. S1067), and gastrin (Tocris, cat. 3006).
[…]
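Further: spheroids exposed to agents for one week before reading.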
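Wherever viability, T/C is given: 100% = DMSO vehicle control viability.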

COc1cccc2c1C(=O)c1c(O)c3c(c(O)c1C2=O)CC(O)(C(=O)CO)CC3OC1CC(N)C(O)C(C)O1 (stereo unspecified)
viability, T/C (compound 0.0316 µM): 97.9% and 93.8% and 88.4%
viability, T/C (compound 0.1 µM): 57.4% and 74.5% and 45%
viability, T/C (compound 0.316 µM): 34.3% and 31.6% and 30.2%
viability, T/C (compound 1 µM): 13.4% and 43% and 12.5%
viability, T/C (compound 3.16 µM): 4.07% and 4.69% and 3.22%
viability, T/C (compound 10 µM): 1.01% and 2.64% and 0.42%
IC50 (curve of compound): 145 nM and 254 nM and 96.7 nM

CC1COCCN1c1cc(C2(O)CC3CCC(C2)O3)c2cnn(-c3ccn[nH]3)c2n1 (stereo unspecified) + CN(C)c1ccc(Nc2c3ccc(NC(=O)CCN4CCCC4)cc3nc3cc(NC(=O)CCN4CCCC4)ccc23)cc1
IC50 (curve of first compound, second compound 0.0316 µM): 44.6 nM
IC50 (curve of first compound, second compound 0.1 µM): 35.1 nM
IC50 (curve of first compound, second compound 0.316 µM): 31.6 nM
IC50 (curve of first compound, second compound 1 µM): 36.1 nM
IC50 (curve of first compound, second compound 3.16 µM): < 31.6 nM
IC50 (curve of first compound, second compound 10 µM): < 31.6 nM
viability, T/C (second compound 0.0316 µM, first compound 0.0316 µM): 60.7%
viability, T/C (second compound 0.0316 µM, first compound 0.1 µM): 20.8%
viability, T/C (second compound 0.0316 µM, first compound 0.316 µM): 22.1%
viability, T/C (second compound 0.0316 µM, first compound 1 µM): 27.8%
viability, T/C (second compound 0.0316 µM, first compound 3.16 µM): 32.3%
viability, T/C (second compound 0.0316 µM, first compound 10 µM): 20.1%
viability, T/C (second compound 0.1 µM, first compound 0.0316 µM): 52.4%
viability, T/C (second compound 0.1 µM, first compound 0.1 µM): 18.3%
viability, T/C (second compound 0.1 µM, first compound 0.316 µM): 24%
viability, T/C (second compound 0.1 µM, first compound 1 µM): 26.1%
viability, T/C (second compound 0.1 µM, first compound 3.16 µM): 32.9%
viability, T/C (second compound 0.1 µM, first compound 10 µM): 19.2%
viability, T/C (second compound 0.316 µM, first compound 0.0316 µM): 50.1%
viability, T/C (second compound 0.316 µM, first compound 0.1 µM): 20.1%
viability, T/C (second compound 0.316 µM, first compound 0.316 µM): 23.8%
viability, T/C (second compound 0.316 µM, first compound 1 µM): 31.3%
viability, T/C (second compound 0.316 µM, first compound 3.16 µM): 31.9%
viability, T/C (second compound 0.316 µM, first compound 10 µM): 19.6%
viability, T/C (second compound 1 µM, first compound 0.0316 µM): 53.5%
viability, T/C (second compound 1 µM, first compound 0.1 µM): 17.6%
viability, T/C (second compound 1 µM, first compound 0.316 µM): 17.9%
viability, T/C (second compound 1 µM, first compound 1 µM): 26.4%
viability, T/C (second compound 1 µM, first compound 3.16 µM): 37.4%
viability, T/C (second compound 1 µM, first compound 10 µM): 14.2%
viability, T/C (second compound 3.16 µM, first compound 0.0316 µM): 47%
viability, T/C (second compound 3.16 µM, first compound 0.1 µM): 21.5%
viability, T/C (second compound 3.16 µM, first compound 0.316 µM): 18.9%
viability, T/C (second compound 3.16 µM, first compound 1 µM): 27.6%
viability, T/C (second compound 3.16 µM, first compound 3.16 µM): 34.1%
viability, T/C (second compound 3.16 µM, first compound 10 µM): 17.2%
viability, T/C (second compound 10 µM, first compound 0.0316 µM): 49.3%
viability, T/C (second compound 10 µM, first compound 0.1 µM): 30.1%
viability, T/C (second compound 10 µM, first compound 0.316 µM): 27.9%
viability, T/C (second compound 10 µM, first compound 1 µM): 25.3%
viability, T/C (second compound 10 µM, first compound 3.16 µM): 28.4%
viability, T/C (second compound 10 µM, first compound 10 µM): 13.3%

Cn1ncnc1[C@H]1c2n[nH]c(=O)c3cc(F)cc(c23)N[C@@H]1c1ccc(F)cc1
viability, T/C (compound 0.000999 µM): 94.9% and 94.7% and 84.8%
viability, T/C (compound 0.00316 µM): 81.5% and 95.2% and 80.6%
viability, T/C (compound 0.00999 µM): 92.4% and 99.2% and 79.1%
viability, T/C (compound 0.0316 µM): 78.9% and 94.1% and 78.3%
viability, T/C (compound 0.0999 µM): 86.8% and 89.5% and 85.8%
viability, T/C (compound 0.316 µM): 60.1% and 87.9% and 72.1%
IC50 (curve of compound): > 316 nM

CCCS(=O)(=O)Nc1ccc(F)c(C(=O)c2c[nH]c3ncc(-c4ccc(Cl)cc4)cc23)c1F
viability, T/C (compound 0.0316 µM): 112% and 121% and 109%
viability, T/C (compound 0.1 µM): 83.8% and 96.3% and 95%
viability, T/C (compound 0.316 µM): 73.2% and 96.7% and 148%
viability, T/C (compound 1 µM): 102% and 108% and 152%
viability, T/C (compound 3.16 µM): 217% and 247% and 153%
viability, T/C (compound 10 µM): 92.2% and 112% and 62.1%
IC50 (curve of compound): > 10000 nM

C#Cc1c(F)ccc2cc(O)cc(-c3ncc4c(N5CC6CCC(C5)N6)nc(OCC56CCCN5CC(F)C6)nc4c3F)c12 (stereo unspecified)
viability, T/C (compound 0.0316 µM): 40.9% and 72.8% and 65.6%
viability, T/C (compound 0.1 µM): 32.6% and 85% and 56.9%
viability, T/C (compound 0.316 µM): 31.2% and 57.2% and 57.9%
viability, T/C (compound 1 µM): 24.3% and 54.7% and 39.5%
viability, T/C (compound 3.16 µM): 27.9% and 53.1% and 48.7%
viability, T/C (compound 10 µM): 17.8% and 37.3% and 35.5%

CN(C)c1ccc(Nc2c3ccc(NC(=O)CCN4CCCC4)cc3nc3cc(NC(=O)CCN4CCCC4)ccc23)cc1
viability, T/C (compound 0.0316 µM): 107% [middle of 12 runs]
viability, T/C (compound 0.1 µM): 103% [middle of 12 runs]
viability, T/C (compound 0.316 µM): 98% [middle of 12 runs]
viability, T/C (compound 1 µM): 89.4% [middle of 12 runs]
viability, T/C (compound 3.16 µM): 82.5% [middle of 12 runs]
viability, T/C (compound 10 µM): 72.5% [middle of 12 runs]
IC50 (compound alone, run of 04/22/2024): > 10000 nM
